# Data reported in patent US6727272B1, “Leflunomide analogs for treating rheumatoid arthritis” (Unitech Pharmaceuticals, Inc., priority 2002, dated 2004).
# Read-outs that look alike come from different tables or passages of the source.
# Tested on: Carrageenan-stimulated inflammation on the rear left footpad of the rat
# Experiment: Carrageenan-induced footpad edema in rats (Edema Rate E% and Inhibition Rate I%)
# Assay type: in vivo, Wistar Albino Rats
# Conditions: sc, vs control group edema rate, read-out: percentage inhibition rate (I %)
# Method: Wistar Albino Rats of 4 to 6 weeks old with weights of 100-150 g were used for the studies.
# Weigh 30 mg of λ-carrageenan (Sigma Chemical) powder; add 3 mL of saline to make the 1% carrageenan solution.
# Individually weigh 10 mg of each testing compound; add 10 mL of 1% CMC and shake to make the suspension.
# In the present invention, Carrageenan was used to stimulate the inflammation on the rear left footpad of the rat. The inflammation on the left footpad of each rat was measured for rats with and without treatment. Treatment includes leflunomide analogs, dexamethasone, ibuprofen, and Malononitrilamide (MNA). Measurements of the inflamation at pre-determined time points were made.
# The rats were weighed and divided into three groups: (1) Control Group, (2) Test Group, and (3) Comparison Group. For each compound, 5 rats were used and marked on the tails. Before injecting carrageenan, the volume of each left footpad was measured (V0). Each rat was injected in the back as follows:
# (1) Control Group: 1% CMC for Control Group,
# (2) Testing Group: testing compound (10 mg/kg each) in 1% CMC, and
# (3) Comparison Group: dexamethasone (1.5 mg/kg in 1% CMC), ibuprofen 10 mg/kg in 1% CMC, MNA in 1% CMC.
# One hour later, 0.05 mL of 1% carrageenan was injected onto the rear footpad of each rat to initiate the inflammation. Measure the volume of the rear left footpad (Vt) at 0.5, 1, 2, 3, 4, and 5 hours.
# The Edema Rate (E%) and the Inhibition Rate (I%) are calculated as follows and the results of the in-vivo studies are summarized in Table 1 and Table 2. [formula]
# V0=Volume (mL) of the rear left footpad before the injection of Carrageenan.
# Vt=Volume (mL) of the rear left footpad at “t” time after the injection of Carrageenan
# Ec=Edema Rate of the, Control Group
# Et=Edema Rate of the Testing Group and Comparison Group
SMILES,"inhibition in vivo at 10 mg/kg (1 h, 1 hr)","inhibition in vivo at 10 mg/kg (2 h, 2 hr)","inhibition in vivo at 10 mg/kg (3 h, 3 hr)","inhibition in vivo at 10 mg/kg (4 h, 4 hr)","inhibition in vivo at 10 mg/kg (5 h, 5 hr)",other results
"Cc1cc(C(=O)Nc2ccc(F)cc2)no1 [Compound 5k, N-(4-Fluorophenyl)-3-carboxamidyl-5-methylisoxazole]",46.2%,17.5%,38.7%,43.5%,43.7%,–
Cc1cc(C(=O)Nc2ccccc2Cl)no1 [Compound 5b],80.1%,82.5%,79.4%,79%,77.7%,–
"Cc1cc(C(=O)Nc2ccc(C(=O)O)cc2)no1 [Compound 5j, 4-[(5-Methylisoxazole-3-carbonyl)-amino]-benzoic acid]",50.5%,46.7%,56.2%,58.3%,57.4%,–
"Cc1cc(C(=O)Nc2cccc(C(F)(F)F)c2)no1 [Compound 5e, N-(3-Trifluoromethyl)-3-carboxamidyl-5-methylisoxazole]",26%,41.7%,40.7%,44%,46.8%,–
"COc1cc(NC(=O)c2cc(C)on2)cc(OC)c1OC [Compound 5i, N-(3,4,5-Trimethoxyphenyl)-3-carboxamidyl-5-methylisoxazole]",6.7%,34%,39.1%,42.7%,42.5%,–
"CC(C)Cc1ccc(C(C)C(=O)O)cc1 (stereo not drawn) [Ibuprofen, reference compound]",9.1%,21.6%,45.9%,44.4%,38%,"inhibition in vivo at 20 mg/kg (1 h, 1 hr): 20.8%; inhibition in vivo at 30 mg/kg (1 h, 1 hr): 65.4%; inhibition in vivo at 20 mg/kg (2 h, 2 hr): 43.2%; inhibition in vivo at 30 mg/kg (2 h, 2 hr): 67.8%; inhibition in vivo at 20 mg/kg (3 h, 3 hr): 55.7%; inhibition in vivo at 30 mg/kg (3 h, 3 hr): 79.7%; inhibition in vivo at 20 mg/kg (4 h, 4 hr): 55.1%; inhibition in vivo at 30 mg/kg (4 h, 4 hr): 74.9%; inhibition in vivo at 20 mg/kg (5 h, 5 hr): 51.6%; inhibition in vivo at 30 mg/kg (5 h, 5 hr): 53%"
"Cc1cc(C(=O)Nc2ccc(C(F)(F)F)cc2)no1 [Compound 5f, N-(4-Trifluoromethylphenyl)3-carboxamidyl-5-methylisoxazole]",46.2%,53.8%,54.6%,58.4%,58.3%,–
"Cc1cc(C(=O)Nc2ccccc2)no1 [Compound 5a, N-(Phenyl)-3-carboxamidyl-5-methylisoxazole]",62.5%,74.9%,78.8%,78.4%,44.5%,–
"Cc1cc(C(=O)Nc2cccc(Cl)c2)no1 [Compound 5c, N-(3-Chlorophenyl)-3-carboxamidyl-5-methylisoxazole]",64.4%,55.3%,60.6%,63.8%,61.1%,–
"Cc1cc(C(=O)Nc2ccc(Cl)cc2)no1 [Compound 5d, N-(4-Chlorophenyl)-3carboxamidyl-5-methyisoxazole]",70.2%,72.8%,77.6%,77.8%,76%,–
"Cc1cc(C(=O)Nc2ccc(Cl)cc2Cl)no1 [Compound 5g, N-(2,4-Dichlorophenyl)-3carboxamidyl-5-methylisoxazole]",79.3%,83.1%,77.4%,79%,78%,–
"C[C@@H]1C[C@H]2[C@@H]3CCC4=CC(=O)C=C[C@]4(C)[C@@]3(F)[C@@H](O)C[C@]2(C)[C@@]1(O)C(=O)CO [Dexamethasone, reference compound]",–,–,–,–,–,"inhibition in vivo at 1.5 mg/kg (1 h, 1 hr): 73.6%; inhibition in vivo at 1.5 mg/kg (2 h, 2 hr): 64.5%; inhibition in vivo at 1.5 mg/kg (3 h, 3 hr): 65.8%; inhibition in vivo at 1.5 mg/kg (4 h, 4 hr): 66.5%; inhibition in vivo at 1.5 mg/kg (5 h, 5 hr): 66.4%"
"COc1ccc(NC(=O)c2cc(C)on2)cc1 [Compound 5h, N-(4-Methoxyphenyl)-3carboxamidyl-5-methylisoxazole]",24%,18.9%,41.6%,44.3%,43.1%,–
"Cc1oncc1C(=O)Nc1ccc(C(F)(F)F)cc1 [Leflunomide, N-(4-trifluoromethylphenyl)-4-carboxamidyl-5-methylisoxazole]",28.4%,34.3%,55%,47.8%,46%,"inhibition in vivo at 5 mg/kg (1 h, 1 hr): 3.8%; inhibition in vivo at 20 mg/kg (1 h, 1 hr): 45.7%; inhibition in vivo at 5 mg/kg (2 h, 2 hr): 19.5%; inhibition in vivo at 20 mg/kg (2 h, 2 hr): 50%; inhibition in vivo at 5 mg/kg (3 h, 3 hr): 41%; inhibition in vivo at 20 mg/kg (3 h, 3 hr): 60.4%; inhibition in vivo at 5 mg/kg (4 h, 4 hr): 38.6%; inhibition in vivo at 20 mg/kg (4 h, 4 hr): 60.3%; inhibition in vivo at 5 mg/kg (5 h, 5 hr): 38.3%; inhibition in vivo at 20 mg/kg (5 h, 5 hr): 57.4%"
